Values quoted from earlier work, collected in patent publication US20060154930A1, “Substituted amino heterocycles as vr-1 antagonists for treating pain” (priority 2003, published 2006).

Target: VR1 (Rattus norvegicus, UniProt O35433)
Settings: Wahl et al., Mol. Pharmacol, 59:9, 2001

Chain of VR1 (O35433 whole entry): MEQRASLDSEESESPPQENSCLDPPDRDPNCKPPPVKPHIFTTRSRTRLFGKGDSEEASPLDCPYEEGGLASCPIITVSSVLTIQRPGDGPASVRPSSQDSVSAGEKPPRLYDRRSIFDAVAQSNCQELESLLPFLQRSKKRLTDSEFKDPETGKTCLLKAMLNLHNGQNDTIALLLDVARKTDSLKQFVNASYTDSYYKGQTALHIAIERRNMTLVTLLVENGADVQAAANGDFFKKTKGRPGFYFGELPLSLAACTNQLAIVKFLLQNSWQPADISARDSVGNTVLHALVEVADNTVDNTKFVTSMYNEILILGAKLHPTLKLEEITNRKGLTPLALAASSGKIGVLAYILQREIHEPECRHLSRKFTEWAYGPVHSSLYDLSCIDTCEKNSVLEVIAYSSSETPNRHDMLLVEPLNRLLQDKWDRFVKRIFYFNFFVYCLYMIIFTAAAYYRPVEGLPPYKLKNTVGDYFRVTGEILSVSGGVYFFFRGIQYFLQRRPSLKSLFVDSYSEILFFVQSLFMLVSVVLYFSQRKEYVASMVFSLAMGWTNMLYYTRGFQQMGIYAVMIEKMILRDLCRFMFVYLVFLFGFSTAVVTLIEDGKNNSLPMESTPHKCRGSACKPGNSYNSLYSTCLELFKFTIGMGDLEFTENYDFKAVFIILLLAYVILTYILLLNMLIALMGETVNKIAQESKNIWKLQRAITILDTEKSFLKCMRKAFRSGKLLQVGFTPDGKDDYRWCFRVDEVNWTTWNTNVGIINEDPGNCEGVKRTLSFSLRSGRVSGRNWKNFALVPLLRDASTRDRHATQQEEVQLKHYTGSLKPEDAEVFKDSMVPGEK

## C=C(C)[C@]12C[C@@H](C)[C@@]34O[C@](Cc5ccccc5)(O[C@@H]1[C@@H]3C=C(COC(=O)Cc1cc(I)c(O)c(OC)c1)C[C@]1(O)C(=O)C(C)=C[C@@H]41)O2 [Iodo-resiniferatoxin]
  VR1 antagonist potency (in words): nanomolar antagonist
